Measured values from patent US20040254128A1, “Treatment and prevention of heat shock protein-associated diseases and conditions” (priority 2001, published 2004).
Read-outs that look alike come from different tables or passages of the source.

How the values were obtained:
[1] = tested on: LPS endotoxin (Escherichia coli 0111:B4)-induced plasma TNF-α; details: for TNF-α at 1 hr: plasma 1 hr after LPS; for TNF-α at 2 hr: plasma 2 hr after LPS
Procedure: LPS endotoxin (300 ng/kg) was injected intravenously into untreated dogs (◯) or simultaneously with 0.1 mg/kg E5564 (Δ) one hour after E5564 administration (□) or three hours after E5564 administration (●). Blood was drawn and analyzed for TNF-α concentration by bioassay, as is described in the Appendix, below. Each value represents the mean±S.E.M. of four animals.
In both assays, activity of the antagonist is quantitated by analysis of the cytokines induced by LPS administration.
Escherichia coli LPS (Serotype 0111:B4; phenol extracted, Cat. # L-2630) was purchased from Sigma Chem. Co. Ltd., St. Louis, Mo., USA. Lyophylized E5564 was solubilized in 5 ml of sterile water (Otsuka Pharm. Co. Ltd., Tokyo, Japan). LPS was weighed to an accuracy of 1/10 mg and solubilized in 5% glucose (Otsuka Pharm. Co. Ltd., Tokyo, Japan). The LPS solution was sonicated with a bath-type sonicator for 15 minutes after which aliquots were immediately prepared and stored at −20° C. Prior to use, the solution was sonicated for one or two minutes, and then dilutions were prepared in 5% glucose.
Nine month-old beagles were obtained from Kawashima-shoji Co. Ltd., Gifu, Japan) and housed in stainless steel wire cages (W 800 mm×D 680 mm×H 680 mm; one dog per cage) in a room with a constant temperature of 20-24° C., humidity of 45-65%, and 12 hour light-dark cycle. The animals were provided with pellet food (DS, Oriental Yeast Co., Tokyo, Japan) and water ad libitum. LPS endotoxin (300 ng/0.1 ml/kg) was injected into the vein of the right foreleg at a rate of 1-2 ml/min, and E5564 was injected into the vein of the left foreleg at a rate of 10-20 ml/min.
Immediately before or 1, 2, or 4 hours after intravenous injection of LPS and E5564, 1.5 ml of blood was drawn from the left cephalic vein. One milliliter was transferred into a tube containing 10 U of heparin (Mochida Pharm. Co. Ltd., Tokyo, Japan), centrifuged (2000×g, 5 minutes, 4° C.), and the plasma was used for bioassays for TNF-α and IL-6.
Aliquots of the plasma were tested for TNF in a bioassay based on the TNF-dependent cell death of L-P3 cells in the presence of actinomycin D. The L-P3 cell line is more sensitive to TNF-induced cell death than the L-929 cell line that is more commonly used.

[2] = Pharmacokinetics in plasma after single bolus intravenous injection; details: dog
[3] = Pharmacokinetics in plasma after 72 hours intravenous infusion; details: beagle, dog
Procedure: Plasma levels of E5564 were determined during and after 72 hours of intravenous infusion of 0.03 mg/kg/hr E5564 (◯, ●), 0.1 mg/kg/hr E5564 (□, ▪), and 1 mg/kg/hr E5564 (Δ, ▴) into female (closed symbols) or male (open symbols) beagle dogs. At the indicated times, blood was drawn and analyzed for E5564 concentration by extraction and analysis by HPLC. Each value represents the mean±S.E.M. of three animals.

[4] = 0.1 mg/kg E5564 iv one hour before LPS 300 ng/kg iv
[5] = 0.1 mg/kg E5564 iv three hours before LPS 300 ng/kg iv

CCCCCC/C=C\CCCCCCCCCC(=O)N[C@H]1[C@H](OC[C@H]2O[C@H](OP(=O)(O)O)[C@H](NC(=O)CC(=O)CCCCCCCCCCC)[C@@H](OCCCCCCCCCC)[C@@H]2O)O[C@H](COC)[C@@H](OP(=O)(O)O)[C@@H]1OCC[C@@H](CCCCCCC)OC [E5564, α-D-Glucopyranose, 3-O-decyl-2-deoxy-6-O-[2-deoxy-3-O-[(3R)-3-methoxydecyl)-6-O-methyl-2-[[(11Z)-1-oxo-11-octadecenyl)amino]-4-O-phosphono-β-D-glucopyranosyl]-2-[(1,3-dioxotetradecyl)amino]-, 1-(dihydrogen phosphate)]
Activity of the endotoxin antagonist, % of its original activity ([1]; 0.1 mg/kg E5564, LPS administered three hours after E5564 dose): about 48% | TNF-α at 1 hr [1, 4]: 0 units/ml | TNF-α at 2 hr [1, 4]: 0 units/ml | TNF-α at 1 hr ([1]; 0.1 mg/kg E5564 iv simultaneously with LPS 300 ng/kg iv, n=4 dogs): 0 units/ml | TNF-α at 2 hr ([1]; 0.1 mg/kg E5564 iv simultaneously with LPS 300 ng/kg iv): 0 units/ml | TNF-α at 1 hr [1, 5]: 1353 ± 340 units/ml | TNF-α at 2 hr [1, 5]: 190 ± 113 units/ml | AUC ([2]; 0.1 mg/kg): 71.8 µg·h/mL | half-life ([2]; 0.1 mg/kg): 2500 ± 162 min | AUC ([2]; 0.3 mg/kg): 271 ± 28.3 µg·h/mL | half-life ([2]; 0.3 mg/kg): 3020 ± 132 min | AUC ([2]; 1 mg/kg): 744 µg·h/mL | half-life ([2]; 1 mg/kg): 2780 ± 162 min | AUC(0-t) ([3]; female, 0.1 mg/kg): 790 ± 51 µg·h/mL | concentration at 72 h ([3]; female, 0.1 mg/kg): 10400 ± 930 ng/mL | half-life ([3]; female, 0.1 mg/kg): 2450 ± 570 min | AUC(0-t) ([3]; female, 0.3 mg/kg): 2620 ± 737 µg·h/mL | concentration at 72 h ([3]; female, 0.3 mg/kg): 32400 ± 5720 ng/mL | half-life ([3]; female, 0.3 mg/kg): 2280 ± 696 min | AUC(0-t) ([3]; female, 1 mg/kg): 29600 ± 1510 µg·h/mL | concentration at 72 h ([3]; female, 1 mg/kg): 394000 ± 14200 ng/mL | half-life ([3]; female, 1 mg/kg): 1920 ± 168 min | AUC(0-t) ([3]; male, 0.1 mg/kg): 1070 ± 139 µg·h/mL | concentration at 72 h ([3]; male, 0.1 mg/kg): 13100 ± 1220 ng/mL | half-life ([3]; male, 0.1 mg/kg): 2300 ± 270 min | AUC(0-t) ([3]; male, 0.3 mg/kg): 3310 ± 485 µg·h/mL | concentration at 72 h ([3]; male, 0.3 mg/kg): 41300 ± 7180 ng/mL | half-life ([3]; male, 0.3 mg/kg): 2390 ± 672 min | AUC(0-t) ([3]; male, 1 mg/kg): 27100 ± 5740 µg·h/mL | concentration at 72 h ([3]; male, 1 mg/kg): 366000 ± 69300 ng/mL | half-life ([3]; male, 1 mg/kg): 2110 ± 522 min
